Measurements from the NIST ThermoML archive (doi:10.1021/je2004462).
± gives the expanded uncertainty stated by the source.

Legend:
[1] = refractive index (Na D-line) (dimensionless); details: 101.33 kPa, Liquid, Standard Abbe refractometry
[2] = for mass density / viscosity: 101.33 kPa, Liquid; for surface tension liquid-gas: Pendant drop shape

CCn1cc[n+](C)c1.O=S(=O)([O-])C(F)(F)C(F)F
Details | mass density, [2] [kg/m3] | refractive index, [1] | surface tension liquid-gas, [2] [mN/m] | viscosity, [2] [mPa·s]
293.15 K | 1435.84 ± 2 | 1.441 ± 0.00047 | – | 117.43 ± 5.6
303.15 K | 1427.44 ± 2 | 1.43833 ± 0.00047 | 43.29 ± 0.47 | 72.64 ± 1.7
313.15 K | 1419.04 ± 2 | 1.4357 ± 0.00047 | 42.45 ± 0.46 | 48.32 ± 0.87
323.15 K | 1410.67 ± 2 | 1.43304 ± 0.00047 | 42.03 ± 0.45 | 33.94 ± 0.6
333.15 K | 1402.33 ± 1.9 | 1.43041 ± 0.00047 | 41.43 ± 0.45 | 25.05 ± 0.44
343.15 K | 1394.02 ± 1.9 | 1.42777 ± 0.00047 | – | 18.86 ± 0.33
353.15 K | 1385.76 ± 1.9 | 1.42514 ± 0.00047 | – | 14.74 ± 0.26

CCOS(=O)(=O)[O-].CCn1cc[n+](C)c1 [1-ethyl-3-methylimidazolium ethyl sulfate]
Details | mass density, [2] [kg/m3] | refractive index, [1] | surface tension liquid-gas, [2] [mN/m] | viscosity, [2] [mPa·s]
293.15 K | 1241.86 ± 1.3 | 1.47959 ± 0.00047 | – | 122.07 ± 6
303.15 K | 1235.06 ± 1.3 | 1.47694 ± 0.00047 | 47.34 ± 0.5 | 75.1 ± 1.9
313.15 K | 1228.28 ± 1.3 | 1.47429 ± 0.00047 | 46.67 ± 0.5 | 49.84 ± 0.9
323.15 K | 1221.54 ± 1.2 | 1.47158 ± 0.00047 | 46.17 ± 0.49 | 35.34 ± 0.62
333.15 K | 1214.84 ± 1.2 | 1.46893 ± 0.00047 | 45.53 ± 0.49 | 25.93 ± 0.45
343.15 K | 1208.19 ± 1.2 | 1.46625 ± 0.00047 | – | 19.36 ± 0.34
353.15 K | 1201.58 ± 1.2 | 1.46359 ± 0.00047 | – | 15.12 ± 0.26
